The source of these data is US20080255186A1, “Pyrazolo[3,4-B]Pyridine Compound, and Its Use as a Pde4 Inhibitor” (priority 2005, published 2008).

The assay addresses T1, PDE6 (from bovine retina) (Bos taurus, UniProt P11541+P23439).
T1 construct: PDE6 can be purified from bovine retina; from tissue; host or cells: bovine retina
T1 sequence (P11541 2-856 limits assumed): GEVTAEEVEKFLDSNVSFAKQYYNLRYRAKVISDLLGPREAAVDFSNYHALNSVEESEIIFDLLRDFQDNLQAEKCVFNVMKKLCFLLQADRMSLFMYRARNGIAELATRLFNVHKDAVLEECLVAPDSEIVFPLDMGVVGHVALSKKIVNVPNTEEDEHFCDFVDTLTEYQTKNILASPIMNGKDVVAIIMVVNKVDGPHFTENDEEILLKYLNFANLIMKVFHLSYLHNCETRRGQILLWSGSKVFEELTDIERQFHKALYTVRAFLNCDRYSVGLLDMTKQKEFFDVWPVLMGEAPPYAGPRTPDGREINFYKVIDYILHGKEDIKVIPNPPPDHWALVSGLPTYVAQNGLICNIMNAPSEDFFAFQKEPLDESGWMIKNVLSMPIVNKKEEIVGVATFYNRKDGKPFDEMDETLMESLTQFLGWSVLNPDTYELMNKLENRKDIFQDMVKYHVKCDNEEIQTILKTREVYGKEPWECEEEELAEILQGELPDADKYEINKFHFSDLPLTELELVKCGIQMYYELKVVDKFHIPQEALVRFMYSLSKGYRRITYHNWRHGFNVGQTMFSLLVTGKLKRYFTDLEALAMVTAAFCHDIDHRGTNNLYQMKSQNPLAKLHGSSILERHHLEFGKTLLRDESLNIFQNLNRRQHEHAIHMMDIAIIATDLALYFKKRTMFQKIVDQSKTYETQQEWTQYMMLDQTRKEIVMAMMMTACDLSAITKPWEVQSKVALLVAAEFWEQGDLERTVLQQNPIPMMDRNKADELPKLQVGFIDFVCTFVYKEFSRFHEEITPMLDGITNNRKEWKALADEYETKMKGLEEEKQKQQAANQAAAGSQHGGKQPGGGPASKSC
T1 sequence (P23439 2-850 limits assumed): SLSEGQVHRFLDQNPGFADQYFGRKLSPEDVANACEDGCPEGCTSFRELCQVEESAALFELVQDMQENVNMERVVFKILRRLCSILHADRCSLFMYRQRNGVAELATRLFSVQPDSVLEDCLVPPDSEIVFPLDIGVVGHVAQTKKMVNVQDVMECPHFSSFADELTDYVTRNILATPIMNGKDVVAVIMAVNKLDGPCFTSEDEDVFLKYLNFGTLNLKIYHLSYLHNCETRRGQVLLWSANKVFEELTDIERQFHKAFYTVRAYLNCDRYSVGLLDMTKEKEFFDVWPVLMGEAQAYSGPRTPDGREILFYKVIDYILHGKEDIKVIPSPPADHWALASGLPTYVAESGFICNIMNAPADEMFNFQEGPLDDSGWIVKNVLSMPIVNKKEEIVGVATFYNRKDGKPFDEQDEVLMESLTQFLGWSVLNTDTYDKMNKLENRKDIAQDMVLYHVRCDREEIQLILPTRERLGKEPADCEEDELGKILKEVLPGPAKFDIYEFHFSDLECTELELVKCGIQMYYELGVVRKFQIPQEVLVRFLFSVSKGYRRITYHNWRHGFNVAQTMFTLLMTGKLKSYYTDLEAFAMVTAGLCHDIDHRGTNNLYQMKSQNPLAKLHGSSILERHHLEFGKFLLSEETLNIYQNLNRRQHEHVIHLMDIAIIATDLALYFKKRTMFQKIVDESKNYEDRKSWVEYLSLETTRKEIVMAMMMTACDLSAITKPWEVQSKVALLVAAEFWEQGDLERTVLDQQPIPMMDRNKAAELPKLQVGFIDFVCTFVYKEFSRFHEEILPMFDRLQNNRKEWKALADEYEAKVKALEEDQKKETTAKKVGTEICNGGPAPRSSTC
Description: PDE6 inhibition (FP or SPA general type of assay). In kind it is biochemical. As to conditions: in the particular assays used. The text has this: PDE6 can be purified from bovine retina as described by: P. Catty and P. Deterre, “Activation and solubilization of the retinal cGMP-specific phosphodiesterase by limited proteolysis”, Eur. J. Biochem., 1991, 199, 263-269; A. Tar et al. “Purification of bovine retinal cGMP phosphodiesterase”, Methods in Enzymology, 1994, 238, 3-12; and/or D. Srivastava et al. “Effects of magnesium on cyclic GMP hydrolysis by the bovine retinal rod cyclic GMP phosphodiesterase”, Biochem. J., 1995, 308, 653-658.
The ability of compounds to inhibit catalytic activity at PDE4B or 4D (human recombinant), PDE3 (from bovine aorta), PDE5 (human recombinant) or PDE6 (from bovine retina) can optionally be determined by Scintillation Proximity Assay (SPA) in a 96-well format.
Test compounds (as a solution in DMSO, suitably about 2 microlitre (ul) volume of DMSO solution) are preincubated at ambient temperature (room temperature, e.g. 19-23° C.) in Wallac Isoplates (code 1450-514) with PDE enzyme in 50 mM Tris-HCl buffer pH 7.5, 8.3 mM MgCl2, 1.7 mM EGTA, 0.05% (w/v) bovine serum albumin for 10-30 minutes (usually 30 minutes). […] Bound radioactive product is measured using a WALLAC TRILUX 1450 Microbeta scintillation counter. […] Curves are analysed using ActivityBase and XLfit (ID Business Solutions Limited, 2 Ocean Court, Surrey Research Park, Guildford, Surrey GU2 7QB, United Kingdom). […]

Take `CCc1nc2c(cnn2CC)c(NC2CCOCC2)c1CNC(=O)c1cc(C)no1` [Example 1, N-{[1,6-diethyl-4-(tetrahydro-2H-pyran-4-ylamino)-1H-pyrazolo[3,4-b]pyridin-5-yl]methyl}-3-methyl-5-isoxazolecarboxamide]: the “PDE4B pIC50 compared with PDE6 pIC50 (selectivity)” value is “inhibits PDE4B more strongly than it inhibits PDE3, PDE5 and PDE6”.
